Values joined by “and” are separate entries in the source; they are usually repeats but may differ in a detail not shown here. Equal entries are not always repeated. Active and inactive are the calls of the source.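 The calls were made as follows: active = compounds giving half or more protection of infected cells from virus-caused growth loss, again on retest; inactive = the rest.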
Test system: CEM cells HIV-1 protection, formazan growth assay
Experiment: NCI AIDS Antiviral Assay
Settings: for IC50: measured here: growth of uninfected CEM cells
How it was run: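 Soluble formazan readout of cell growth; CEM cells ± HIV-1; 5 drug concs. ≥50% protection → retest; ≥50% again = moderately active; reproducible 100% = confirmed active.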

| SMILES | EC50 [µM] | IC50 | outcome |
| --- | --- | --- | --- |
| CC1=C(C(=O)NC(C)(C)C)CC(C(=O)NC(C)(C)C)C(C)N1 (centres undefined) | > 200 | > 200 µM |  |
| Cn1c(O)c(N=O)c(=O)[nH]c1=O | > 200 | > 200 µM |  |
| CC1(C)COC(c2ccc(C(=O)c3ccc(Cl)cc3)cc2)=N1 | > 200 | 81.3 µM |  |
| CCOP(=O)(OCC)/C(=C/NC(=S)c1ccncc1)C(=O)OC | 126 | 186 µM |  |
| N#CC(C(=O)CCC(=O)Nc1cccc(C(F)(F)F)c1)c1ccc(Cl)cc1 (centres undefined) |  |  | inactive |
| Cn1ccnc1SC(F)(F)c1nc2ccccc2o1 | > 200 | 148 µM |  |
| CC1=C(C(=O)Nc2ccccc2)C(c2cc(Cl)cc(Cl)c2)C(C(=O)Nc2ccccc2)=C(C)N1 | > 14.5 | > 14.5 µM |  |
| O=c1[nH]nc(-c2ccccc2)n1/N=C/c1ccc([N+](=O)[O-])cc1 | > 200 | > 200 µM |  |
| O=C1C(=O)c2ccccc2C(O)=C1C(/C=C/c1ccccc1)C1=C(O)c2ccccc2C(=O)C1=O | > 200 | 9.55 µM |  |
| CCOC(=O)C1NS(=O)(=O)NC(C(=O)OCC)NS(=O)(=O)N1 (centres undefined) |  |  | inactive |
| N/C=N/S(=O)(=O)c1ccc(NC(=O)COC(=O)c2cccc3c(=O)c4ccccc4[nH]c23)cc1 |  |  | inactive |
| N#Cc1cc(Sc2ccc(N)c(C#N)c2)ccc1N | > 200 | 11 µM |  |
| Oc1c(Cl)cccc1SSc1cccc(Cl)c1O | > 200 | 34.7 µM |  |
| Cc1ccc(NC(=O)C(=O)C2C(=O)C3=C(CC2(C)C)NC2C=CC=CC2S3)c(C)c1 (centres undefined) | > 117 | > 117 µM |  |
| c1cc(-c2cn3ccsc3n2)ccn1 | > 447 | 186 µM |  |
| CCCCCC[n+]1noc(N)c1-c1ccc(-c2c(N)on[n+]2CCCCCC)cc1 | > 200 | 2.57 µM |  |
| CC(C)(C)CP(CCP(C)(C)=S)CC(C)(C)C | > 44.7 | > 44.7 µM |  |
| Cc1cc(C#N)c(Nc2ccccc2[N+](=O)[O-])s1 | > 200 | 42.7 µM |  |
| O=C(Nc1cccnc1)c1ccccc1[Se][Se]c1ccccc1C(=O)Nc1cccnc1 | 3.24 | 6.92 µM |  |
| CN(C)CCN(C)CCN(C)C.Cc1ccc(S(=O)(=O)[O-])cc1.Cc1ccc(S(=O)(=O)[O-])cc1.[Pd+2] | > 200 | 10.7 µM |  |
| O=c1/c(=C/c2ccccc2F)sc2nc3ccccc3n12 | > 1.82 | > 1.82 µM |  |
| CC1=NNC(=O)C1C1CC(c2c[nH]c3ccccc23)=NN/C1=N\N (centres undefined) | > 100 | > 100 µM |  |

| SMILES | EC50 [µM] | IC50 | outcome |
| --- | --- | --- | --- |
| CC1(CCCO)CCCCCC(C)(CCCO)C1=O (centres undefined) | > 200 | 97.7 µM |  |
| O=C(Nc1ccc([N+](=O)[O-])cc1)N(c1cc(Cl)ccn1)C1CCCCC1 | > 200 | 11 µM |  |
| CN(C)c1ccc(/C=C(\NC(=O)c2ccccc2)C(=O)Nc2ccccc2C(=O)O)cc1 | > 100 | > 100 µM |  |
| CC(=O)NNC(=S)N/C=C/c1c(C)ccc([N+](=O)[O-])c1[N+](=O)[O-] | > 200 | 41.7 µM |  |
| CN(C)c1ccc(S(=O)Nc2ccccc2)cc1 (centres undefined) | > 200 | 85.1 µM |  |
| C/C(C(=O)O)=C(\C)c1ccccc1 | > 200 | > 200 µM |  |
| O=C(CN1CCOCC1)Nc1nc(-c2ccc(Cl)cc2)cs1 | > 107 | 33.1 µM |  |
| Cc1cn(C2CC(SCCO)C(CO)O2)c(=O)[nH]c1=O (centres undefined) | > 200 | > 200 µM |  |
| CCOC(=O)C1C(=O)CN2CCc3c([nH]c4ccccc34)C12C(=O)OCC (centres undefined) | > 257 | 162 µM |  |
| Cn1c(=O)c2c(nnc(-c3ccccc3)[n+]2[O-])n(C)c1=O | > 200 | 87.1 µM |  |
| COc1ccc(NC(=O)CC(=O)N2N=C(c3ccccc3)C(N=Nc3ccc(S(=O)(=O)CCOS(=O)(=O)O)cc3)C2=O)cc1 (centres undefined) | > 200 | > 200 µM |  |
| CCOC(=O)c1[nH]c(-c2[nH]c(-c3[nH]c(-c4[nH]c(C(=O)OCC)c(C)c4C(=O)OCC)c(C(=O)OCC)c3C)c(C)c2C(=O)OCC)c(C(=O)OCC)c1C | > 200 | > 200 µM |  |
| CC(C)(C)[Si](C)(C)OCCCCC1CC2(S(=O)(=O)C3=CC=C=C=C3)ON1CC2S(=O)(=O)c1ccccc1 (centres undefined) | > 45.7 | > 45.7 µM |  |
| CCOC(=O)C1CCCC1S(=O)(=O)c1ccc(C)cc1 (centres undefined) | > 200 | > 200 µM |  |
| c1ccc2[nH]c(CNc3ccc(C4C[Se]N=N4)cc3)nc2c1 (centres undefined) | > 20.4 | > 20.4 µM |  |
| Nc1nc2c(ccc3ccccc32)[nH]1 |  |  | inactive |
| O=S(=O)(/C=C/C=C/S(=O)(=O)c1ccccc1)c1ccccc1 | > 2 | 0.251 µM |  |
| CCCc1c(-c2ccc(OC)cc2)c(=O)oc2cc(O)ccc12 | > 200 | 53.7 µM |  |
| CC1(C)C(=O)/C=C\C(=O)C(C)(C)C2=CC=C(O2)C(C)(C)C(=O)/C=C\C(=O)C(C)(C)C2=CC=C1O2 |  |  | inactive |
| COc1ccc(C2CC(=O)c3c(O)cc(O)cc3O2)cc1O (centres undefined) | > 832 | 74.1 µM |  |
| Cc1cc(C)c2c(=N)c3ccccc3n(CCCCCCO)c2n1 | > 200 | 1.38 µM |  |
| O=C1Nc2ccccc2C1(O)C/C(=N/O)c1ccc2ccccc2c1 (centres undefined) | > 107 | > 107 µM |  |

| SMILES | EC50 [µM] | IC50 | outcome |
| --- | --- | --- | --- |
| CCOC(=O)c1c(N)ssc1=S | 87.1 | 158 µM |  |
| C[PH+](C)CC[PH+](C)C.[C-]#[O+].[C-]#[O+].[C-]#[O+].[Fe] | > 200 | > 200 µM |  |
| COC(=O)[C@H](Cc1c[nH]c2ccccc12)NP(=O)(O)OCC1C=CC(n2cc(C)c(=O)[nH]c2=O)O1 (some centres undefined) | 28.2 | > 200 µM |  |
| COc1ccccc1/C=C1\C=Cc2ccccc21 | > 204 | 31.6 µM |  |
| CC(=O)C(=Cc1cccc(Br)c1)C(C)=O | > 135 | 7.41 µM |  |
| COC(=O)/C(=N\NC(C)(C)C)C(C(=O)OC)C(=O)C(=O)Nc1cc(Cl)ccc1Cl (centres undefined) |  |  | inactive |
| CC1(C)O[C@]2(C=C[C@@H]1O)CCCCO2 | > 251 | > 251 µM |  |
| CC(Cl)CN1c2ccccc2Sc2ccc(Cl)cc21 (centres undefined) | > 200 | 132 µM |  |
| Cc1cc(C)nc(NS(=O)(=O)c2ccc(Nc3c4ccccc4nc4c(C(=O)Nc5ccc(S(=O)(=O)N=C(N)N)cc5)cccc34)cc2)n1 | 49 | 51.3 µM |  |
| COc1c2c(cc3nc4ccccc4nc13)CCC(C(C)(C)O)C2 (centres undefined) |  |  | inactive |
| N#CC1(C=O)c2ccccc2C=CN1C(=O)c1ccccc1 (centres undefined) | > 91.2 | > 91.2 µM |  |
| CN(C(=O)c1cc2c(s1)sc1c(=O)n(C)c3ccccc3c12)c1ccccc1 | > 200 | 2.95 µM |  |
| O=S(=O)([O-])[O-].[OH3+].[OH3+].[OH3+].[Ru+2].c1ccccc1 | > 79.4 | > 79.4 µM |  |
| CC(C)=CC(Cc1ccccc1)S(=O)(=O)c1nc2ccccc2s1 (centres undefined) | > 200 | 10 µM |  |
| CCOC1=C2C(C)(CCC3[C@@]4(C)C=CC(=O)C(C)(C)C4CC(O)[C@@]23C)C(c2ccoc2)C1=O (some centres undefined) | > 79.4 | 17.8 µM |  |
| O=[N+]([O-])/C=C/c1cn(CCCCCCCCCCCCn2cc(/C=C/[N+](=O)[O-])c3ccccc32)c2ccccc12 | > 100 | > 100 µM |  |
| O=C(Cc1nc2sc3c(c2c(=O)[nH]1)CCCC3)Nc1ccccc1 |  |  | inactive |
| COc1cc([N+](=O)[O-])ccc1NC(=O)C(F)(F)F | > 200 | 57.5 µM |  |
| COc1ccc(C2=C(N)c3c(Cl)cccc3C2=O)cc1 | > 200 | 155 µM |  |
| O=S(=O)(c1ccccc1)C1(C2(S(=O)(=O)c3ccccc3)CCN=N2)CCN=N1 (centres undefined) |  |  | inactive |
| Cc1cn(C2CC3OP(=O)(C(C)(C)C#N)OCC3O2)c(=O)[nH]c1=O (centres undefined) | > 708 | 447 µM |  |
| O=[N+]([O-])c1ccc(C2ON=C(c3ccccc3)N2C23CC4CC(CC(C4)C2)C3)cc1 (centres undefined) | > 200 | 186 µM |  |

| SMILES | EC50 [µM] | IC50 | outcome |
| --- | --- | --- | --- |
| C=CCNC(=S)/N=C/c1c(O)[nH]c(=O)[nH]c1=O |  |  | inactive |
| CN1C2C=CC(=O)C1C(C#N)C2 (centres undefined) | > 200 | 34.7 µM and 115 µM |  |
| O=C(O)c1cc(C(=O)Nc2ccc(C3=NCCN3)cc2)c(C(=O)O)cc1C(=O)Nc1ccc(C2=NCCN2)cc1 | > 200 | > 200 µM |  |
| CC(=O)OCC1OC(n2c(C)c(N=Nc3ccccc3)c(C)c(C#N)c2=S)C(OC(C)=O)C(OC(C)=O)C1OC(C)=O (centres undefined) | > 200 | > 200 µM |  |
| N=C(c1ccc(-c2cn3cc(C(=N)N4CCCC4)ccc3n2)cc1)N1CCCC1 | 148 | > 200 µM |  |
| O=c1n(-c2ccccc2)c(=O)n2n1C1C=CC2C23C=CC12CCCC3 (centres undefined) | > 100 | 77.6 µM |  |
| CCO[C@@]12CCC3CC4CC[C@@](OCC)(O1)C4C32 (some centres undefined) | > 200 | > 200 µM |  |
| O=c1oc2c(O)c(O)cc3c(=O)oc4c(O)c(O)cc1c4c23 | > 66.1 | 42.7 µM |  |
| NC(=O)c1c(-c2ccccc2)c(-c2ccccc2)cc2c(=O)c3ccccc3[nH]c12 |  |  | inactive |
| CCOC(=O)c1cc2c3c(c(O)c(OC)c2s1)N(C(=O)c1cc2c4c(c(O)c(OC)c2s1)N(C(C)=O)CC4)CC3 |  |  | inactive |
| Cc1ccc(N=Nc2c(N)nn3cc4c(nc23)CCC4)cc1 | > 200 | > 200 µM |  |
| CC1(C)CCCCCCCCCC(C)(CCCO)C1=O (centres undefined) | > 200 | 26.9 µM |  |
| CCOC(=O)/C=C/c1ccc(C#N)cc1 |  |  | inactive |
| CCCCCCCCCCN(CCCCCCCCCC)CC(=O)Nc1ccc(S(=O)(=O)c2ccc(NC(=O)CN(CCCCCCCCCC)CCCCCCCCCC)cc2)cc1 | > 50.1 | 3.02 µM |  |
| CC1(C)C(O)c2ccccc2OC1N1CCN(C2Oc3ccccc3C(O)C2(C)C)CC1 (centres undefined) | > 200 | > 200 µM |  |
| c1ccc2c(CC[n+]3cccc(C4OCCO4)c3)c[nH]c2c1 | > 661 | 110 µM |  |
| C[C@]12CC[C@H]3[C@@H](CCC4=CC(=O)C=C[C@@]43O)[C@@H]1CCC2=O | > 200 | > 200 µM |  |
| CCCCOC(=O)N[C@H]1CCc2cc(OC)c(OC)c(OC)c2-c2ccc(SC)c(=O)cc21 | > 0.2 | 0.00407 µM |  |
| COc1cc(-c2cc(-c3ccccc3)c3cc(Cl)ccc3n2)cc(OC)c1OC | > 200 | > 200 µM |  |
| CCOc1ccc(NC2OC(CO)C(O)C(O)C2NC(C)=O)cc1 (centres undefined) | > 200 | > 200 µM |  |

Source: PubChem BioAssay AID179 (DTP/NCI, 2004)
